In the experiment the target is T1, B7-1/CD28 binding (Homo sapiens, UniProt P33681).
T1 sequence (P33681 35-242 limits assumed): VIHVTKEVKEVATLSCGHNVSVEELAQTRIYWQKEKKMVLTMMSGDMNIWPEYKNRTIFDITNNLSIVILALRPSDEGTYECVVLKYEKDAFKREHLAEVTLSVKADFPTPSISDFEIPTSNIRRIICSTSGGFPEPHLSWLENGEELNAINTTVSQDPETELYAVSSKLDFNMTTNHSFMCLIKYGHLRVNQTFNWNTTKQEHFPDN
The experiment in a line: CD28/B7-1 ELISA (B7-1/CD28 binding inhibition). The settings on record: CD28-Fc coated wells, B7-1-Fc-biotin/streptavidin-alkaline phosphatase detection complex, 1% DMSO. On the procedure:
Evaluation of B7-1/CD28 Binding Inhibition for Test Compounds
Wells are coated with 300 ng CD28-Fc in carbonate buffer (pH 9.4) overnight at 4° C., blocked with 1% bovine serum albumin in tris-buffered saline (TBS) for 1 h at 22° C. and washed 3 times in TBS prior to assay. The detection complex is formed as follows: B7-1-Fc-biotin, prepared using NHS-LC-biotin (Pierce #21335) according to the manufacturers instructions (4.1 moles biotin/mole Fc), is added at 0.8 ug/ml to streptavidin-alkaline phosphatase (Caltag Sa1008 at 1:1000 in TBS. Gradient dilutions of test compound in dimethylsulfoxide (1% final) are added to this complex and incubated 30 min. at 22° C. Detection complex (+/−inhibitors) is then added to the CD28 coated wells for 25 min. at 22° C., washed 5 times with TBS, developed with the calorimetric substrate pNPP (Pierce #34045) in diethanolamine/MgCl2 buffer (pH 9.5) and read at 405 nm. The inhibition constant (IC50) is calculated by subtracting background binding and comparing to uninhibited (DMSO alone) controls. The inhibition constant represents the concentration of test compound required to achieve 50% inhibition.
In general terms: An ELISA detects its analyte on a solid surface through an enzyme-linked reagent.
For orientation: IC50 means the point on the concentration scale where inhibition reaches its midpoint. A higher IC50 goes with lower potency. On to `COC(=O)c1cc(-n2[nH]c3c(c(-c4cccc(C(F)(F)F)c4)nc4c3cnn4C)c2=O)ccc1F` [Example 35], for which the IC50 was determined as 98 nM. Then `Cn1ncc2c3[nH]n(-c4cccc(F)c4)c(=O)c3c(-c3cccc([N+](=O)[O-])c3)nc21` [Example 50], with 4 nM; and `COc1cccc(-c2nc3c(cnn3C)c3[nH]n(-c4cccc(F)c4)c(=O)c23)c1` [Example 75], with 82 nM; and `O=c1c2c(-c3cccc(C(F)(F)F)c3)nc3[nH]ncc3c2[nH]n1-c1ccc(F)cc1` [Example 65], with 50 nM.

With `Cn1ncc2c3[nH]n(-c4cccc(C(=O)O)c4)c(=O)c3c(-c3cccc(C(F)(F)F)c3)nc21` [Example 21], the 50% inhibitory concentration (IC50) was 48 nM.

`Cn1ncc2c3[nH]n(-c4cccc(F)c4)c(=O)c3c(-c3cccc(C#N)c3)nc21` [Example 53] displayed an IC50 of 30 nM. The result for `O=c1c2c(-c3cccc(C(F)(F)F)c3)nc3c(cnn3Cc3ccccc3)c2[nH]n1-c1ccc(F)cc1` [Example 64] reads 70 nM. Then `Cn1ncc2c3[nH]n(-c4ccc(F)c(C(=O)O)c4)c(=O)c3c(-c3cccc(C(F)(F)F)c3)nc21` [Example 36], with 70 nM. `CCCn1ncc2c3[nH]n(-c4ccc(F)cc4)c(=O)c3c(-c3cccc(C(F)(F)F)c3)nc21` [Example 68] came in with an IC50 of 90 nM. This IC50 and that of the compound before are within 1.5-fold of each other.

`Cn1ncc2c3[nH]n(-c4ccc(F)cc4F)c(=O)c3c(-c3cccc(C(F)(F)F)c3)nc21` [Example 44] displayed an IC50 of 1000 nM. Then `COC(=O)c1cccc(-n2[nH]c3c(c(-c4cccc(C(F)(F)F)c4)nc4c3cnn4C)c2=O)c1` [Example 22], with 8 nM; and `Cc1cccc(-c2nc3c(cnn3C)c3[nH]n(-c4cc(C)cc(C)c4)c(=O)c23)c1` [Example 19], with 990 nM. Then `Cn1ncc2c3[nH]n(-c4cccc(F)c4)c(=O)c3c(-c3cccc(S(C)(=O)=O)c3)nc21` [Example 55], with 1900 nM; and `Cn1ncc2c3[nH]n(-c4ccc([N+](=O)[O-])cc4)c(=O)c3c(-c3cccc(C(F)(F)F)c3)nc21` [Example 40], with 100 nM; and `Cc1cccc(-c2nc3c(cnn3C)c3[nH]n(-c4ccccn4)c(=O)c23)c1` [Example 10], with 150 nM. The compound `Cn1ncc2c3[nH]n(-c4ccc(C(C)(C)C)cc4)c(=O)c3c(-c3cccc(C(F)(F)F)c3)nc21` [Example 42] showed an IC50 of 900 nM. The result for `Cn1ncc2c3[nH]n(-c4cccc(F)c4)c(=O)c3c(-c3cc(Cl)cc(Cl)c3)nc21` [Example 73, 4-(3,5-Dichlorophenyl)-2-(3-fluorophenyl)-6-methyl-1,6-dihydrodypyrazolo[3,4-b:3′,4′-d]pyridin-3(2H)-one] reads 40 nM; that for `Cn1ncc2c3[nH]n(-c4ccccn4)c(=O)c3c(-c3cncc(Br)c3)nc21` [Example 9], 400 nM. On to `O=c1c2c(-c3cccc(C(F)(F)F)c3)nc3c(cnn3CCO)c2[nH]n1-c1ccc(F)cc1` [Example 66], for which the half-inhibitory concentration (IC50) amounted to 800 nM.

In turn, `COC(=O)c1cc(-n2[nH]c3c(c(-c4cccc(C(F)(F)F)c4)nc4c3cnn4C)c2=O)ccc1Cl` [Example 26] displayed an IC50 of 120 nM. Then `COC(=O)c1ccc(-n2[nH]c3c(c(-c4cccc(C(F)(F)F)c4)nc4c3cnn4C)c2=O)cc1Cl` [Example 29], with 41 nM; and `CCOC(=O)c1cccc(-n2[nH]c3c(c(-c4cccc(C(F)(F)F)c4)nc4c3cnn4C)c2=O)c1` [Example 28], with 170 nM. The result for `Cn1ncc2c3[nH]n(-c4ccc(C(=O)O)c(Cl)c4)c(=O)c3c(-c3cccc(Br)c3)nc21` [Example 32] reads 9 nM; that for `Cn1ncc2c3[nH]n(-c4ccccn4)c(=O)c3c(-c3cccc(Br)c3)nc21` [Example 13], 70 nM; that for `Cn1ncc2c3[nH]n(-c4cccc(OCc5ccccc5)c4)c(=O)c3c(-c3cccc(C(F)(F)F)c3)nc21` [Example 59], 20 nM. The result for `Cn1ncc2c3[nH]n(-c4cccc(F)c4)c(=O)c3c(-c3ccc4c(c3)OCO4)nc21` [Example 76] reads 295 nM. In turn, `Cn1ncc2c3[nH]n(-c4ccc(=O)[nH]n4)c(=O)c3c(-c3cccc(C(F)(F)F)c3)nc21` [Example 24] showed a concentration for half-maximal inhibition (IC50) of 72 nM.

In the case of `Cn1ncc2c3[nH]n(-c4ccc(C(=O)O)c(F)c4)c(=O)c3c(-c3cccc(C(F)(F)F)c3)nc21` [Example 38], the IC50 stood at 210 nM. `Cn1ncc2c3[nH]n(-c4ccc([N+](=O)[O-])cc4)c(=O)c3c(-c3cccc(Br)c3)nc21` [Example 18]: the IC50 amounted to 12 nM.

In turn, `Cn1ncc2c3[nH]n(-c4ccc(F)cc4)c(=O)c3c(-c3cncc(Br)c3)nc21` [Example 8] registered a 50% inhibitory concentration (IC50) of 200 nM. Then `Cn1ncc2c3[nH]n(-c4ccc(C(=O)O)c(Cl)c4)c(=O)c3c(-c3cccc(C(F)(F)F)c3)nc21` [Example 30], with 16 nM. The result for `Cn1ncc2c3[nH]n(-c4ccc(Cl)cc4)c(=O)c3c(-c3ccccc3)nc21` [Example 6] reads 1800 nM; that for `Cn1ncc2c3[nH]n(-c4cccc(F)c4)c(=O)c3c(-c3cccc(C(=O)O)c3)nc21` [Example 60], 70 nM. The result for `Cn1ncc2c3[nH]n(-c4cccc(F)c4)c(=O)c3c(-c3cccc(C(N)=O)c3)nc21` [Example 54] reads 1500 nM. In turn, `COC(=O)c1ccc(-n2[nH]c3c(c(-c4cccc(C(F)(F)F)c4)nc4c3cnn4C)c2=O)cc1` [Example 34] displayed an IC50 of 31 nM. Then `Cc1csc(C(=O)O)c1-n1[nH]c2c(c(-c3cccc(C(F)(F)F)c3)nc3c2cnn3C)c1=O` [Example 52], with 1700 nM. In the case of `Cn1ncc2c3[nH]n(-c4cccc(F)c4)c(=O)c3c(-c3cccc(C(F)(F)F)c3)nc21` [Example 43], the IC50 came to 20 nM. The result for `Cn1ncc2c3[nH]n(-c4ccc(F)cc4)c(=O)c3c(-c3cccc(N)c3)nc21` [Example 47] reads 400 nM. The result for `CC1CN(c2nc3c(cnn3C)c3[nH]n(-c4cccc(F)c4)c(=O)c23)CC(C)O1` (stereo not shown) [Example 81, 4-(2,6-Dimethyl-4-morpholinyl)-2-(3-fluorophenyl)-6-methyl-1,6-dihydrodipyrazolo[3,4-b:3′-4′-d]pyridin-3(2H)-one] reads 188 nM; that for `Cn1ncc2c3[nH]n(-c4ccc(N)cc4)c(=O)c3c(-c3cccc(C(F)(F)F)c3)nc21` [Example 48], 50 nM. Then `O=c1c2c(-c3cccc(C(F)(F)F)c3)nc3c(cnn3-c3ccccc3)c2[nH]n1-c1cccc(F)c1` [Example 7], with 750 nM; and `Cn1ncc2c3[nH]n(-c4ccc(F)cc4)c(=O)c3c(-c3cccc([N+](=O)[O-])c3)nc21` [Example 46], with 50 nM; and `Cn1ncc2c3[nH]n(-c4ccc(C(=O)O)cc4)c(=O)c3c(-c3cccc(C(F)(F)F)c3)nc21` [Example 33], with 190 nM. Compound `Cc1cc(C)cc(-n2[nH]c3c(c(-c4cccc(C(F)(F)F)c4)nc4c3cnn4C)c2=O)c1` [Example 20] returned a half-inhibitory concentration (IC50) of 66 nM. Compared with the last compound, the IC50 is about 2.9-fold lower. The result for `Cn1ncc2c3[nH]n(-c4cccc(F)c4)c(=O)c3c(-c3ccsc3)nc21` [Example 74] reads 105 nM; that for `Cc1cc(C)cc(-n2[nH]c3c(c(-c4cccc(Br)c4)nc4c3cnn4C)c2=O)c1` [Example 17], 58 nM.

The values are drawn from patent publication US6900223B2, “Dihydrodipyrazolopyridinone inhibitors of B7-1” (Wyeth, priority 2002, dated 2005).
